Results published in US20050058745A1, “Use of Labiatae herb preparations for extending the flavor shelf life of malt beverages” (priority 2003, published 2005).

Key:
[1] = Walter et al. 1997; cited from earlier work
[2] = Dadic 1984; cited from earlier work
[3] = Trained panel flavor evaluation, light beer, forced aging; settings: 5 ppm, 6 days 32° C.; for preservation of fresh flavor (words): light beer
Experimental: Separate solution of pure rosmarinic acid, pure carnosol and pure carnosic acid were prepared in ethanol as previously.
The light beer used in this study was approximately one month old and was purchased at a local market. Bottle additions were done as in Example 1.
The bottles were placed in a heated room at 32±1° C. in the dark. After the allotted aging time, the bottles of beer were transferred to a dark refrigerator and stored at approximately 2° to 4° C. until they were analyzed. Additional bottles from the same code were kept unopened in 2° to 4° C. storage. These unopened samples from the same beer code were labeled “Fresh Control” used to provide fresh samples for the trained panel.
At the appropriate times, a trained 7-member panel evaluated the beers. […] Five beers were evaluated at the session—Fresh Control, Aged No Addition, and Aged containing each one of the Labiatae treatments. The overall preference rank, the character and intensity of the aroma, the levels of paper/cardboard aroma and flavor, sour or off flavors, hang and astringency and bitterness quality and intensity were evaluated.

[4] = DPPH number of light beer with carnosol; format: physicochemical; settings: for DPPH No.: 2 to 4° C. for 1 day
Experimental: To perform the test, about 0.04 g of DPPH was weighed to the nearest 0.1 mg in a 100 mL volumetric, recording the exact weight of DPPH. The DPPH was dissolved in methanol and methanol was added to bring the volume to the 100 mL mark. The solution was sonicated to facilitate dissolution. The beers to be measured were opened and 12 mL of each was poured into separate 15 mL centrifuge tubes, making sure that the volumes in all tubes were equal. The analyses were done in triplicate for each beer. An extra beer sample served as a spectrophotometer blank. The beer was degassed by centrifuging it for 15 min at 6,000 rpm. Into each of two 25 mL flasks was pipeted 5 mL of the pH 4.5 water-ethanol buffer. The spectrophotometer wavelength was set to 531 nm and a buffered water blank was zeroed. 1.0 mL of DPPH solution was added to the water buffer, which was swirled at the same time a timer was started. Just before 10 minutes had elapsed, the sample was transferred to a cuvette and the absorbance (ABL) was measured. The analysis was duplicated with another buffer. For accuracy it is necessary that great care be taken to add exactly 1 mL reagent. It is also important to swirl (mix) the samples consistently as the assay is sensitive to oxygen and to the amount of reagent used. Degassed beer was used to obtain a baseline at 531 nm. After centrifugation 5 mL of the beer was transferred into the appropriate labeled 25 mL flask. 1.0 mL of DPPH solution was added, the solution was swirled and the timer was started. The Absorbance (A531) of the beer sample was recorded. This process was repeated for all samples. To eliminate any possible prejudice in order of analysis, samples were analyzed randomly. The following formula was used to calculate the amount of DPPH which reacts with 5 mL of beer: μmol DPPH=((1−A531/ABL)×(g DPPH/394))×10^6
A 2% solution of carnosol, isolated from sage extract, was prepared by weighing 200 mg pure carnosol and bringing to 10 mL with pure ethanol. […]

[5] = DCIP redox potential of light beer with carnosol; format: physicochemical; settings: for DCIP Redox Potential: 2 to 4° C. for 1 day
Experimental: A 2% solution of carnosol, isolated from sage extract, was prepared by weighing 200 mg pure carnosol and bringing to 10 mL with pure ethanol. Bottles were dosed at 10 and 20 ppm carnosol with our standard bottle addition technique of opening, fobbing to exclude air, and crowning.
Bottles were stored at 2 to 4° C. for 1 day before analysis. Standard DCIP and DPPH measurements were taken.

Compound: catechin
- effectiveness in standardized antioxidant assays [1]: ineffective

Compound: COc1ccc(O)c(C(C)(C)C)c1 [BHA]
- effectiveness as antioxidant for beer [2]: ineffective

Compound: Cc1cc(C(C)(C)C)c(O)c(C(C)(C)C)c1 [BHT]
- effectiveness as antioxidant for beer [2]: ineffective

Compound: CC(C)c1cc2c(c(O)c1O)[C@@]13CCCC(C)(C)[C@@H]1C[C@@H]2OC3=O [CN, carnosol]
- panelists' preference for treated sample over Aged No Addition sample [3]: 7 of 7 panelists preferred
- preservation of fresh flavor (words) [3]: very significantly retards the rate of staling
- preservation of fresh flavor (words) ([3]; listed as Carnosol): significant, positive impact on preserving fresh flavor
- effect on beer's ability to reduce DPPH [4]: does not enhance a beer's ability to reduce DPPH
- DPPH No. ([4]; 10 ppm Carnosol): 33.1 μmol DPPH
- DPPH No. ([4]; 20 ppm Carnosol): 37.0 μmol DPPH
- effect on redox potential by DCIP method [5]: does not enhance the redox potential of beer
- DCIP Redox Potential ([5]; 10 ppm Carnosol): 19.6
- DCIP Redox Potential ([5]; 20 ppm Carnosol): 19.6

Compound: O=c1c(O)c(-c2ccc(O)c(O)c2)oc2cc(O)cc(O)c12 [quercitin]
- effectiveness in standardized antioxidant assays [1]: ineffective
